How the values were obtained:
[1] = xn = mol fraction of the nth substance listed; settings: for surface tension liquid-gas: Ring tensiometer; for viscosity / speed of sound / mass density: 101 kPa, Liquid; for viscosity: Capillary tube (Ostwald / Ubbelohde) method; for speed of sound: Sing-around technique in a fixed-path interferometer; for mass density: Vibrating tube method
[2] = refractive index (Na D-line) (dimensionless); xn = mol fraction of the nth substance listed; settings: 101 kPa, Liquid, Standard Abbe refractometry

C[C@H](O)CN [(2S)-1-amino-2-propanol] + CN1CCCC1=O
Settings | mass density, [1] [kg/m3] | refractive index, [2] | speed of sound, [1] [m/s] | surface tension liquid-gas, [1] [mN/m] | viscosity, [1] [mPa·s]
293.15 K, x2 = 0 | 960.8 | 1.448 | 1560.8 | 37.6 | 31.67
293.15 K, x2 = 0.1034 | 968.2 | 1.4503 | 1553.5 | 38.1 | 18.96
293.15 K, x2 = 0.2008 | 975.3 | 1.4523 | 1549.1 | 38.5 | 12.72
293.15 K, x2 = 0.3001 | 982.8 | 1.4545 | 1547.5 | 39 | 8.746
293.15 K, x2 = 0.4002 | 989.5 | 1.4567 | 1546 | 39.5 | 7.694
293.15 K, x2 = 0.4978 | 996.5 | 1.4585 | 1546.2 | 40 | 6.542
293.15 K, x2 = 0.5943 | 1003.3 | 1.4607 | 1547.4 | 40.7 | 5.578
293.15 K, x2 = 0.7 | 1010.9 | 1.4632 | 1550.9 | 41.2 | 4.249
293.15 K, x2 = 0.7993 | 1018.1 | 1.4655 | 1554.8 | 41.5 | 3.533
293.15 K, x2 = 0.8913 | 1025 | 1.4675 | 1559.4 | 42.1 | 3.098
303.15 K, x2 = 0 | 952.8 | 1.4442 | 1528.3 | 36.9 | 17.71
303.15 K, x2 = 0.1034 | 960 | 1.4464 | 1519.6 | 37.3 | 11.49
303.15 K, x2 = 0.2008 | 966.9 | 1.4484 | 1514.7 | 37.8 | 8.051
303.15 K, x2 = 0.3001 | 974.2 | 1.4505 | 1511.8 | 38.3 | 5.78
303.15 K, x2 = 0.4002 | 980.8 | 1.4527 | 1510 | 38.8 | 5.21
303.15 K, x2 = 0.4978 | 987.7 | 1.4547 | 1509.4 | 39.2 | 4.723
303.15 K, x2 = 0.5943 | 994.5 | 1.4567 | 1510.3 | 39.5 | 4.271
303.15 K, x2 = 0.7 | 1002 | 1.4591 | 1512.8 | 40.1 | 3.395
303.15 K, x2 = 0.7993 | 1009.2 | 1.4614 | 1516.8 | 40.7 | 2.909
303.15 K, x2 = 0.8913 | 1016.1 | 1.4635 | 1520.6 | 41 | 2.576
313.15 K, x2 = 0 | 944.7 | 1.4401 | 1495.7 | 36.3 | 10.65
313.15 K, x2 = 0.1034 | 951.7 | 1.4423 | 1486 | 36.8 | 7.301
313.15 K, x2 = 0.2008 | 958.4 | 1.4445 | 1480.5 | 37.3 | 5.308
313.15 K, x2 = 0.3001 | 965.6 | 1.4464 | 1476.6 | 37.7 | 4.045
313.15 K, x2 = 0.4002 | 972.1 | 1.4488 | 1474.8 | 38.1 | 3.725
313.15 K, x2 = 0.4978 | 978.8 | 1.4506 | 1472.8 | 38.7 | 3.448
313.15 K, x2 = 0.5943 | 985.6 | 1.4528 | 1473.5 | 39 | 3.375
313.15 K, x2 = 0.7 | 993.1 | 1.4548 | 1475.4 | 39.5 | 2.775
313.15 K, x2 = 0.7993 | 1000.3 | 1.4572 | 1479.1 | 40.2 | 2.458
313.15 K, x2 = 0.8913 | 1007.2 | 1.4594 | 1482.6 | 40.4 | 2.168
323.15 K, x2 = 0 | 936.5 | 1.436 | 1462.9 | 35.9 | 6.961
323.15 K, x2 = 0.1034 | 943.2 | 1.4382 | 1452.1 | 36.2 | 4.793
323.15 K, x2 = 0.2008 | 949.8 | 1.4401 | 1446 | 36.6 | 3.499
323.15 K, x2 = 0.3001 | 956.9 | 1.4421 | 1441.6 | 37.1 | 2.939
323.15 K, x2 = 0.4002 | 963.3 | 1.4442 | 1440.5 | 37.6 | 2.649
323.15 K, x2 = 0.4978 | 969.9 | 1.4464 | 1436.8 | 38 | 2.438
323.15 K, x2 = 0.5943 | 976.7 | 1.4482 | 1436.8 | 38.4 | 2.731
323.15 K, x2 = 0.7 | 984.2 | 1.4506 | 1438.4 | 38.8 | 2.317
323.15 K, x2 = 0.7993 | 991.4 | 1.4529 | 1441.7 | 39.2 | 2.073
323.15 K, x2 = 0.8913 | 998.2 | 1.4552 | 1445.1 | 39.5 | 1.861

CC(O)CNCC(C)O (stereo not given) [N-(2-hydroxypropyl)-2-hydroxy-1-propanamine] + CN1CCCC1=O
Settings | mass density, [1] [kg/m3] | refractive index, [2] | speed of sound, [1] [m/s] | surface tension liquid-gas, [1] [mN/m] | viscosity, [1] [mPa·s]
293.15 K, x2 = 0.7804 | 1021.9 | 1.4675 | 1535.6 | 39.7 | 4.857
293.15 K, x2 = 0.8882 | 1026.8 | 1.4682 | 1548.8 | 41.3 | 2.943
303.15 K, x2 = 0.4695 | 1006 | 1.4608 | 1483.8 | 37.1 | 20.25
303.15 K, x2 = 0.5721 | 1007.3 | 1.4616 | 1486.6 | 37.6 | 10.57
303.15 K, x2 = 0.6754 | 1010.8 | 1.4623 | 1494.7 | 38.3 | 6.229
303.15 K, x2 = 0.7804 | 1013.4 | 1.4635 | 1499.4 | 39 | 3.694
303.15 K, x2 = 0.8882 | 1018.2 | 1.4648 | 1511.9 | 40 | 2.371
313.15 K, x2 = 0.2764 | 993.1 | 1.4558 | 1443.5 | 36 | 38.27
313.15 K, x2 = 0.3733 | 994.5 | 1.4563 | 1445 | 36.2 | 21.14
313.15 K, x2 = 0.4695 | 997.8 | 1.4567 | 1450.8 | 36.7 | 11.24
313.15 K, x2 = 0.5721 | 998.9 | 1.4576 | 1453.3 | 37.2 | 7.051
313.15 K, x2 = 0.6754 | 1002.3 | 1.4582 | 1460.3 | 37.9 | 4.495
313.15 K, x2 = 0.7804 | 1004.8 | 1.4594 | 1463.7 | 38.5 | 2.89
313.15 K, x2 = 0.8882 | 1009.4 | 1.4607 | 1474.9 | 39.5 | 1.943
323.15 K, x2 = 0 | 984.1 | 1.4512 | 1420.3 | 34.5 | 125.73
323.15 K, x2 = 0.1049 | 984 | 1.451 | 1414.2 | 34.9 | 61.14
323.15 K, x2 = 0.1898 | 984.4 | 1.4511 | 1411.8 | 35.1 | 35.41
323.15 K, x2 = 0.2764 | 985.1 | 1.452 | 1412.2 | 35.1 | 20.93
323.15 K, x2 = 0.3733 | 986.4 | 1.4524 | 1413 | 35.3 | 12.67
323.15 K, x2 = 0.4695 | 988.2 | 1.4528 | 1415.4 | 36 | 7.412
323.15 K, x2 = 0.5721 | 990.6 | 1.4535 | 1419.6 | 36.5 | 5.022
323.15 K, x2 = 0.6754 | 993.5 | 1.4541 | 1424.3 | 37.1 | 3.42
323.15 K, x2 = 0.7804 | 996.8 | 1.4553 | 1428.6 | 37.7 | 2.33
323.15 K, x2 = 0.8882 | 1000.7 | 1.4565 | 1438.7 | 38.7 | 1.631
